Values quoted from earlier work, collected in patent US20070031352A1, “Powdery preparations containing diethylamino-hydroxybenzoyl-hexyl-benzoate” (BASF Aktiengesellschaft, priority 2003, published 2007).

Conditions: at 354 nm

With `CCCCCCOC(=O)c1ccccc1C(=O)c1ccc(N(CC)CC)cc1O` [Uvinul® A Plus, diethylamino hydroxybenzoyl hexyl benzoate] as the compound, how does the absorbance coefficient read?
The absorbance coefficient was 940.
